Test results from patent EP0527889B1, “QUINOLIZINONE TYPE COMPOUNDS” (priority 1990, dated 1991).
Where a name gives a salt, the structure may show the parent alone.

Experiments:
[1] = system: Acinetobacter calcoaceticus CMX 669; experiment: In vitro antibacterial activity, MIC by agar dilution; type: cell-based; details: BHI agar, 35-37°C, 20-24 hours, unit assumed
Summary of the method: (§1)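 First, strains diluted 1:100 (1:10 if slow-growing) are spotted at about 10^4 CFU onto compound-containing agar. Next, plates incubate 20–24 hours near 35–37°C. Finally, growth is compared with BHI agar lacking compound to assign the MIC.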

[2] = system: Enterobacter aerogenes ATCC 13048; experiment: as above; type: cell-based; details: BHI agar, 35-37°C, 20-24 hours, unit assumed
Summary of the method: as §1

[3] = system: Enterococcus faecium ATCC 8043; experiment: as above; type: cell-based; details: BHI agar, 35-37°C, 20-24 hours, unit assumed
Summary of the method: as §1

[4] = system: Escherichia coli DC-2; experiment: as above; type: cell-based; details: BHI agar, 35-37°C, 20-24 hours, unit assumed
Summary of the method: as §1

[5] = system: Escherichia coli H560; experiment: as above; type: cell-based; details: BHI agar, 35-37°C, 20-24 hours, unit assumed
Summary of the method: as §1

[6] = system: Escherichia coli JUHL; experiment: as above; type: cell-based; details: BHI agar, 35-37°C, 20-24 hours, unit assumed
Summary of the method: as §1

[7] = system: Escherichia coli KNK 437; experiment: as above; type: cell-based; details: BHI agar, 35-37°C, 20-24 hours, unit assumed
Summary of the method: as §1

[8] = system: Escherichia coli SS; experiment: as above; type: cell-based; details: BHI agar, 35-37°C, 20-24 hours, unit assumed
Summary of the method: as §1

[9] = system: Klebsiella pneumoniae ATCC 8045; experiment: as above; type: cell-based; details: BHI agar, 35-37°C, 20-24 hours, unit assumed
Summary of the method: as §1

[10] = system: Micrococcus luteus ATCC 4698; experiment: as above; type: cell-based; details: BHI agar, 35-37°C, 20-24 hours, unit assumed
Summary of the method: as §1

[11] = system: Micrococcus luteus ATCC 9341; experiment: as above; type: cell-based; details: BHI agar, 35-37°C, 20-24 hours, unit assumed
Summary of the method: as §1

[12] = system: Providencia stuartii CMX 640; experiment: as above; type: cell-based; details: BHI agar, 35-37°C, 20-24 hours, unit assumed
Summary of the method: as §1

[13] = system: Pseudomonas aeruginosa 2862; experiment: as above; type: cell-based; details: BHI agar, 35-37°C, 20-24 hours, unit assumed
Summary of the method: as §1

[14] = system: Pseudomonas aeruginosa 5263; experiment: as above; type: cell-based; details: BHI agar, 35-37°C, 20-24 hours, unit assumed
Summary of the method: as §1

[15] = system: Pseudomonas aeruginosa A5007; experiment: as above; type: cell-based; details: BHI agar, 35-37°C, 20-24 hours, unit assumed
Summary of the method: as §1

[16] = system: Pseudomonas aeruginosa BMH10; experiment: as above; type: cell-based; details: BHI agar, 35-37°C, 20-24 hours, unit assumed
Summary of the method: as §1

[17] = system: Pseudomonas aeruginosa K799/61; experiment: as above; type: cell-based; details: BHI agar, 35-37°C, 20-24 hours, unit assumed
Summary of the method: as §1

[18] = system: Pseudomonas aeruginosa K799/WT; experiment: as above; type: cell-based; details: BHI agar, 35-37°C, 20-24 hours, unit assumed
Summary of the method: as §1

[19] = system: Pseudomonas cepacia 296I; experiment: as above; type: cell-based; details: BHI agar, 35-37°C, 20-24 hours, unit assumed
Summary of the method: as §1

[20] = system: Staphylococcus aureus 1775; experiment: as above; type: cell-based; details: BHI agar, 35-37°C, 20-24 hours, unit assumed
Summary of the method: as §1

[21] = system: Staphylococcus aureus 642A; experiment: as above; type: cell-based; details: BHI agar, 35-37°C, 20-24 hours, unit assumed
Summary of the method: as §1

[22] = system: Staphylococcus aureus A-5278; experiment: as above; type: cell-based; details: BHI agar, 35-37°C, 20-24 hours, unit assumed
Summary of the method: as §1

[23] = system: Staphylococcus aureus A5177; experiment: as above; type: cell-based; details: BHI agar, 35-37°C, 20-24 hours, unit assumed
Summary of the method: as §1

[24] = system: Staphylococcus aureus ATCC 6538P; experiment: as above; type: cell-based; details: BHI agar, 35-37°C, 20-24 hours, unit assumed
Summary of the method: as §1

[25] = system: Staphylococcus aureus CMX 553; experiment: as above; type: cell-based; details: BHI agar, 35-37°C, 20-24 hours, unit assumed
Summary of the method: as §1

[26] = system: Staphylococcus aureus NCTC 10649; experiment: as above; type: cell-based; details: BHI agar, 35-37°C, 20-24 hours, unit assumed
Summary of the method: as §1

[27] = system: Staphylococcus epidermidis 3519; experiment: as above; type: cell-based; details: BHI agar, 35-37°C, 20-24 hours, unit assumed
Summary of the method: as §1

[28] = system: Streptococcus agalactaciae CMX 508; experiment: as above; type: cell-based; details: BHI agar, 35-37°C, 20-24 hours, unit assumed
Summary of the method: as §1

[29] = system: Streptococcus bovis A5169; experiment: as above; type: cell-based; details: BHI agar, 35-37°C, 20-24 hours, unit assumed
Summary of the method: as §1

[30] = system: Streptococcus pyrogenes 2548 INDUC; experiment: as above; type: cell-based; details: BHI agar, 35-37°C, 20-24 hours, unit assumed
Summary of the method: as §1

[31] = system: Streptococcus pyrogenes CONST; experiment: as above; type: cell-based; details: BHI agar, 35-37°C, 20-24 hours, unit assumed
Summary of the method: as §1

[32] = system: Streptococcus pyrogenes EES61; experiment: as above; type: cell-based; details: BHI agar, 35-37°C, 20-24 hours, unit assumed
Summary of the method: as §1

[33] = system: Staphylococcus aureus NCTC 10649; experiment: In vivo antibacterial activity in mice (protection from lethal intraperitoneal infection); details: NCTC10649, 144 h, S. aureus, CF-1 female mice infected intraperitoneally with 100 times the LD50, treated at 1 and 5 hr after infection, cumulative mortalities on the sixth day
Protocol: (§2) The in vivo antibacterial activity of the compounds of the present invention was determined as follows: Aqueous solutions of the test compounds were prepared by dissolving the compound in distilled water, except for the compounds of examples 169 and 170 which were dissolved in a solution of 2% DMSO in distilled water.
(§3) After 18 hr incubation, a culture of Staphylococcus aureus NCTC 10649 was serially diluted by using 10-fold dilutions in 5% (w/v) hog gastric mucin. Cultures (0.5 mL) in a dilution from 10^-1 to 10^-8 were injected intraperitoneally into CF-1 female mice weighing approximately 20g. The LD50 (median lethal dose) for the test organism was calculated from the cumulative mortalities on the sixth day by the using the Reed and Muench procedure (Reed, L.J., and H. Muench, Amer. J. Hygiene, 27, 493 (1938)).
(§4) The above 18 hr culture was diluted in 5% (w/v) hog gastric mucin to obtain 100 times the LD50, and 0.5 mL was injected intraperitoneally into mice. The mice were treated subcutaneously (sc) or orally (po) with a specific amount of the test compound divided equally to be administered at 1 and 5 hr after infection. A group of 10 animals each for at least three dose levels was thus treated, and the deaths were recorded daily for 6 days. Ten mice were left untreated as infection control. ED50 values were calculated from the cumulative mortalities on the sixth day after infection by using the trimmed version of the Logit method ( Hamilton, M.A., R.C. Russo, and R.V. Thurston, Environ. Sci. Technol. 11, 714 (1977)).

[34] = system: Escherichia coli JUHL; experiment: as above; details: 144 h, E. coli JUHL, mice infected intraperitoneally, treated at 1 and 5 hr after infection, cumulative mortalities on the sixth day
Protocol: as §2, §3, §4
The LD50 for Escherichia coli JUHL was determined in a manner similar to that above for S. aureus. The 18 hr cultures of this organism were also prepared for po and sc testing in mice, from which ED50 values were calculated. Positive controls were run with temafloxacin as the test compound, for which ED50 values were also calculated.

Structure (SMILES): C[C@H]1C[C@H](N)CN1c1nc2c(-c3ccc(F)cc3F)cc(C(=O)O)c(=O)n2cc1F [Example 171, 2-((2S,4S)-4-Amino-2-methylpyrrolidin-1-yl)-9-(2,4-difluorophenyl)-3-fluoro-6H-6-oxopyrido[1,2-a]pyrimidine-7-carboxylic acid hydrochloride]
- MIC values [1]: 0.05 µg/mL
- MIC values [2]: 0.1 µg/mL
- MIC values [3]: 0.78 µg/mL
- MIC values [4]: 0.78 µg/mL
- MIC values [5]: 0.02 µg/mL
- MIC values [6]: 0.02 µg/mL
- MIC values [7]: 0.39 µg/mL
- MIC values [8]: 0.001 µg/mL
- MIC values [9]: 0.01 µg/mL
- MIC values [10]: 0.78 µg/mL
- MIC values [11]: 3.1 µg/mL
- MIC values [12]: 6.2 µg/mL
- MIC values [13]: 50 µg/mL
- MIC values [14]: 50 µg/mL
- MIC values [15]: 0.39 µg/mL
- MIC values [16]: 0.2 µg/mL
- MIC values [17]: 0.05 µg/mL
- MIC values [18]: 0.39 µg/mL
- MIC values [19]: 6.2 µg/mL
- MIC values [20]: 50 µg/mL
- MIC values [21]: 0.2 µg/mL
- MIC values [22]: 0.1 µg/mL
- MIC values [23]: 0.1 µg/mL
- MIC values [24]: 0.1 µg/mL
- MIC values [25]: 0.2 µg/mL
- MIC values [26]: 0.1 µg/mL
- MIC values [27]: 0.2 µg/mL
- MIC values [28]: 0.78 µg/mL
- MIC values [29]: 1.56 µg/mL
- MIC values [30]: 0.39 µg/mL
- MIC values [31]: 0.78 µg/mL
- MIC values [32]: 0.78 µg/mL
- ED50 ([33]; po): 12.8 mg/kg
- ED50 ([33]; sc): > 8 mg/kg
- ED50 ([34]; po): > 20 mg/kg
- ED50 ([34]; sc): 4.8 mg/kg
